Target: T1, AsPC-1 HiBiT-KRASG12D (Homo sapiens, UniProt P01116, G12D)
T1 construct: insert the HiBiT tag onto the N-terminus of one or more of the endogenous KRAS alleles; endogenous in cells; host or cells: AsPC-1 (ATCC CRL-1682), CRISPR-Cas9 knock-in clone, one tagged allele
Assay: HiBiT degradation assay (G12D), AsPC-1 HiBiT-KRASG12D cells
Assay type: cell-based
Conditions: 24 hours treatment; for DC50: AsPC-1 HiBiT-KRASG12D cells, HiBiT luminescence; for Dmax: ASPC1, AsPC-1 HiBiT-KRASG12D cells, maximum degradation observed
Outline: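 Endogenous KRASG12D levels were measured via an N-terminal HiBiT tag knocked into AsPC-1 cells. Cells received compound titrations for 24 hours, and HiBiT luminescence was detected after a 45-minute lytic reagent incubation at room temperature.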

T1 sequence (P01116 1-188 isoform P01116-2 G12D): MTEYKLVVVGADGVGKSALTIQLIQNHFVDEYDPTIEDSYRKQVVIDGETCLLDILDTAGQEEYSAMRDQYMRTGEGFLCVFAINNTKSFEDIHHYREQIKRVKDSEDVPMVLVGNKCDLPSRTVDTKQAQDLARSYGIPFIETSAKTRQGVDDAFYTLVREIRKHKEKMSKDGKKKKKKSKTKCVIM

| Compound | DC50 [nM] | Dmax [%] |
| --- | --- | --- |
| CCc1cccc2cc(O)cc(-c3ncc4c(N5CC6CCC(C5)N6)nc(N5CCC(CN6CCC(CC7CN(c8cc([C@@H](C(=O)N9C[C@H](O)C[C@H]9C(=O)N[C@@H](C)c9ccc(-c%10scnc%10C)cc9)C(C)C)on8)C7)CC6)CC5)nc4c3F)c12 [Compound 193, (2S,4R)-1-[(2S)-2-(3-{3-[(1-{[1-(4-{3,8-diazabicyclo[3.2.1]octan-3-yl}-7-(8-ethyl-3-hydroxynaphthalen-1-yl)-8-fluoropyrido[4,3-d]pyrimidin-2-yl)piperidin-4-yl]methyl}piperidin-4-yl)methyl]azetidin-1-yl}-1,2-oxazol-5-yl)-3-methylbutanoyl]-4-hydroxy-N-[(1S)-1-[4-(4-methyl-1,3-thiazol-5-yl)phenyl]ethyl]pyrrolidine-2-carboxamide] | > 3000 |  |
| CCc1cccc2cc(O)cc(-c3ncc4c(N5CC6CCC(C5)N6)nc(OCCN5CCC(CN6CC7(C6)CN(c6cc([C@H](C(=O)N8C[C@H](O)C[C@H]8C(=O)N[C@@H](C)c8ccc(-c9scnc9C)cc8)C(C)C)on6)C7)CC5)nc4c3F)c12 [Compound 235, (2S,4R)-1-[(2R)-2-[3-[6-[1-[2-[[4-(3,8-diazabicyclo[3.2.1]octan-3-yl)-7-(8-ethyl-3-hydroxy-1-naphthyl)-8-fluoro-pyrido[4,3-d]pyrimidin-2-yl]oxyethyl]-4-piperidyl]methyl]-2,6-diazaspiro[3.3]heptan-2-yl]isoxazol-5-yl]-3-methyl-butanoyl]-4-hydroxy-N-[(1S)-1-[4-(4-methylthiazol-5-yl)phenyl]ethyl]pyrrolidine-2-carboxamide] | < 600 | 80 to 100 |
| CCc1cccc2cc(O)cc(-c3ncc4c(N5CC6CCC(C5)N6)nc(OC[C@]56CCCN5[C@H](COc5cc([C@@H](C(=O)N7C[C@H](O)C[C@H]7C(=O)N[C@@H](C)c7ccc(-c8scnc8C)cc7)C(C)C)on5)CC6)nc4c3F)c12 [Compound 324, (2S,4R)-1-[(2S)-2-(3-{[(3S,7aR)-7a-{[(4-{3,8-diazabicyclo[3.2.1]octan-3-yl}-7-(8-ethyl-3-hydroxynaphthalen-1-yl)-8-fluoropyrido[4,3-d]pyrimidin-2-yl)oxy]methyl}-hexahydro-1H-pyrrolizin-3-yl]methoxy}-1,2-oxazol-5-yl)-3-methylbutanoyl]-4-hydroxy-N-[(1S)-1-[4-(4-methyl-1,3-thiazol-5-yl)phenyl]ethyl]pyrrolidine-2-carboxamide] |  | 80 to 100 |
| CCc1cccc2cc(O)cc(-c3ncc4c(N5CC6CCC(C5)N6)nc(OCCN5CCC(F)(CN6CCN(c7cc([C@H](C(=O)N8C[C@H](O)C[C@H]8C(=O)N[C@@H](C)c8ccc(-c9scnc9C)cc8)C(C)C)on7)CC6)CC5)nc4c3F)c12 [Compound 262] | < 600 | 80 to 100 |
| CCc1cccc2cc(O)cc(-c3ncc4c(N5CC6CCC(C5)N6)nc(OCCN5CCC(OC6CN(c7cc([C@@H](C(=O)N8C[C@H](O)C[C@H]8C(=O)N[C@@H](C)c8ccc(-c9scnc9C)cc8)C(C)C)on7)C6)CC5)nc4c3F)c12 [Compound 216, (2S,4R)-1-[(2S)-2-(3-{3-[(1-{2-[(4-{3,8-diazabicyclo[3.2.1]octan-3-yl}-7-(8-ethyl-3-hydroxynaphthalen-1-yl)-8-fluoropyrido[4,3-d]pyrimidin-2-yl)oxy]ethyl}piperidin-4-yl)oxy]azetidin-1-yl}-1,2-oxazol-5-yl)-3-methylbutanoyl]-4-hydroxy-N-[(1S)-1-[4-(4-methyl-1,3-thiazol-5-yl)phenyl]ethyl]pyrrolidine-2-carboxamide] | 1000 to 3000 | 20 to 60 |
| CCc1cccc2cc(O)cc(-c3ncc4c(N5CC6CCC(C5)N6)nc(OCCN5CCC(CN6CC7(C6)CN(c6cc([C@@H](C(=O)N8C[C@H](O)C[C@H]8C(=O)N[C@@H](C)c8ccc(-c9scnc9C)cc8)C(C)C)on6)C7)CC5)nc4c3F)c12 [Compound 236] | > 3000 |  |
| CCc1cccc2cc(O)cc(-c3ncc4c(N5CC6CCC(C5)N6)nc(OCCN5CCC(CN6CCN(c7cc([C@@H](C(=O)N8C[C@H](O)C[C@H]8C(=O)N[C@@H](C)c8ccc(-c9ccnn9C)cc8)C(C)C)on7)CC6)CC5)nc4c3F)c12 [Compound 201, (2S,4R)-1-[(2S)-2-(3-{4-[(1-{2-[(4-{3,8-diazabicyclo[3.2.1]octan-3-yl}-7-(8-ethyl-3-hydroxynaphthalen-1-yl)-8-fluoropyrido[4,3-d]pyrimidin-2-yl)oxy]ethyl}piperidin-4-yl)methyl]piperazin-1-yl}-1,2-oxazol-5-yl)-3-methylbutanoyl]-4-hydroxy-N-[(1S)-1-[4-(1-methyl-1H-pyrazol-5-yl)phenyl]ethyl]pyrrolidine-2-carboxamide] | > 3000 |  |
| CCc1cccc2cc(O)cc(-c3ncc4c(N5CC6CCC(C5)N6)nc(OCCN5CCC(CC6CN(c7cc([C@H](C(=O)N8C[C@H](O)C[C@H]8C(=O)N[C@@H](C)c8ccc(-c9ccnn9C)cc8)C(C)C)on7)C6)CC5)nc4c3F)c12 (single isomer, unassigned) [Compound 264, (2S,4R)-1-[(2R*)-2-(3-{3-[(1-{2-[(4-{3,8-diazabicyclo[3.2.1]octan-3-yl}-7-(8-ethyl-3-hydroxynaphthalen-1-yl)-8-fluoropyrido[4,3-d]pyrimidin-2-yl)oxy]ethyl}piperidin-4-yl)methyl]azetidin-1-yl}-1,2-oxazol-5-yl)-3-methylbutanoyl]-4-hydroxy-N-[(1S)-1-[4-(1-methyl-1H-pyrazol-5-yl)phenyl]ethyl] pyrrolidine-2-carboxamide] | < 600 | 80 to 100 |
| C#Cc1c(F)ccc2cc(O)cc(-c3ncc4c(N5CC6CCC(C5)N6)nc(OCCN5CCC(C)(COc6cc([C@H](C(=O)N7C[C@H](O)C[C@H]7C(=O)N[C@@H](C)c7ccc(-c8scnc8C)cc7)C(C)C)on6)CC5)nc4c3F)c12 [Compound 313, (2S,4R)-1-[(2R)-2-{3-[(1-{2-[(4-{3,8-diazabicyclo[3.2.1]octan-3-yl}-7-(8-ethynyl-7-fluoro-3-hydroxynaphthalen-1-yl)-8-fluoropyrido[4,3-d]pyrimidin-2-yl)oxy]ethyl}-4-methylpiperidin-4-yl)methoxy]-1,2-oxazol-5-yl}-3-methylbutanoyl]-4-hydroxy-N-[(1S)-1-[4-(4-methyl-1,3-thiazol-5-yl)phenyl]ethyl]pyrrolidine-2-carboxamide] | < 600 | 80 to 100 |
| CCc1cccc2cc(O)cc(-c3ncc4c(N5CC6CCC(C5)N6)nc(OCCN5CCC(C(C)(C)N6CCN(c7cc([C@H](C(=O)N8C[C@H](O)C[C@H]8C(=O)N[C@@H](C)c8ccc(-c9scnc9C)cc8)C(C)C)on7)CC6)CC5)nc4c3F)c12 [Compound 186, (2S,4R)-1-[(2R)-2-(3-{4-[2-(1-{2-[(4-{3,8-diazabicyclo[3.2.1]octan-3-yl}-7-(8-ethyl-3-hydroxynaphthalen-1-yl)-8-fluoropyrido[4,3-d]pyrimidin-2-yl)oxy]ethyl}piperidin-4-yl)propan-2-yl]piperazin-1-yl}-1,2-oxazol-5-yl)-3-methylbutanoyl]-4-hydroxy-N-[(1S)-1-[4-(4-methyl-1,3-thiazol-5-yl)phenyl]ethyl] pyrrolidine-2-carboxamide] | < 600 | 80 to 100 |
| CCc1cccc2cc(O)cc(-c3cc4nc(OC[C@]56CCCN5[C@H](COC(=O)N5CCN(c7cc(C(C(=O)N8C[C@H](O)C[C@H]8C(=O)N[C@@H](C)c8ccc(-c9scnc9C)cc8)C(C)C)on7)CC5)CC6)nc(N5CC6CCC(C5)N6)c4cn3)c12 (single isomer, unassigned) [Compound 266] | < 600 | 80 to 100 |
| CCc1cccc2cc(O)cc(-c3ncc4c(N5CC6CCC(C5)N6)nc(O[C@H](C)CN5CCC(COc6cc([C@H](C(=O)N7C[C@H](O)C[C@H]7C(=O)N[C@@H](C)c7ccc(-c8scnc8C)cc7)C(C)C)on6)CC5)nc4c3F)c12 [Compound 101, (2S,4R)-1-[(2R)-2-[3-({1-[(2R)-2-[(4-{3,8-diazabicyclo[3.2.1]octan-3-yl}-7-(8-ethyl-3-hydroxynaphthalen-1-yl)-8-fluoropyrido[4,3-d]pyrimidin-2-yl)oxy]propyl]piperidin-4-yl}methoxy)-1,2-oxazol-5-yl]-3-methylbutanoyl]-4-hydroxy-N-[(1S)-1-[4-(4-methyl-1,3-thiazol-5-yl)phenyl]ethyl]pyrrolidine-2-carboxamide] | < 600 | 60 to 80 |
| C#Cc1c(F)ccc2cc(O)cc(-c3ncc4c(N5CC6CCC(C5)N6)nc(OCCN5CCC(CC6CN(c7cc([C@@H](C(=O)N8C[C@H](O)C[C@H]8C(=O)N[C@@H](C)c8ccc(-c9ccnn9C)cc8)C(C)C)on7)C6)CC5)nc4c3F)c12 [Compound 160, (2S,4R)-1-[(2S)-2-(3-{3-[(1-{2-[(4-{3,8-diazabicyclo[3.2.1]octan-3-yl}-7-(8-ethynyl-7-fluoro-3-hydroxynaphthalen-1-yl)-8-fluoropyrido[4,3-d]pyrimidin-2-yl)oxy]ethyl}piperidin-4-yl)methyl]azetidin-1-yl}-1,2-oxazol-5-yl)-3-methylbutanoyl]-4-hydroxy-N-[(1S)-1-[4-(1-methyl-1H-pyrazol-5-yl)phenyl]ethyl]pyrrolidine-2-carboxamide] | > 3000 | 20 to 60 |
| CCc1cccc2cc(O)cc(-c3ncc4c(N5CC6CCC(C5)N6)nc(OC[C@@]56CCCN5[C@@H](COC(=O)N5CCN(c7cc([C@H](C(=O)N8C[C@H](O)C[C@H]8C(=O)N[C@@H](C)c8ccc(-c9scnc9C)cc8)C(C)C)on7)CC5)CC6)nc4c3F)c12 [Compound 106, [(3R,7aS)-7a-{[(4-{3,8-diazabicyclo[3.2.1]octan-3-yl}-7-(8-ethyl-3-hydroxynaphthalen-1-yl)-8-fluoropyrido[4,3-d]pyrimidin-2-yl)oxy]methyl}-hexahydro-1H-pyrrolizin-3-yl]methyl 4-{5-[(2R)-1-[(2S,4R)-4-hydroxy-2-{[(1S)-1-[4-(4-methyl-1,3-thiazol-5-yl)phenyl]ethyl]carbamoyl}pyrrolidin-1-yl]-3-methyl-1-oxobutan-2-yl]-1,2-oxazol-3-yl}piperazine-1-carboxylate] | < 600 | 80 to 100 |
